Data taken from patent US20260259231A1, “METHODS AND DEVICES FOR DETECTION OF COAGULATION IMPAIRMENT” (Coagulo Medical Technologies, Inc., priority 2021, published 2026).
Like-named read-outs stand apart in the source and are kept apart here.

Experiments:
FXI = FXI (Homo sapiens, UniProt P03951); experiment: Clotting time of inhibitor-spiked whole blood samples on addition of exogenous FXI (FIG. 33A, 33C); conditions: FIG. 33C; FXI inhibitor at Conc 1<Conc 2<Conc 3
Experimental: FIG. 33A provides representative clotting-curves of whole blood samples spiked with a concentration of FXI inhibitor (inh) (Conc 1<Conc 2<Conc 3); no inhibitor was added to the negative control. The curves show the samples' respective changes in clotting time as a response to the addition of increasing concentrations of exogenous FXI.
FIG. 33C reports the effect of the addition of exogenous FXI on the clotting time of various samples. In this example, the negative control, containing no inhibitor, has an unaffected clotting time with the addition of FXI.

[1] = tested on: coagulation cascade (FXa, FIIa, FXI inhibition); experiment: Clotting time of inhibitor-spiked blood samples on addition of buffer, FXa or FIIa (FIG. 33B); conditions: for clotting time, control condition: no exogenous factor added, contact activation pathway activator; for clotting time upon addition of exogenous FIIa: two concentrations of FIIa; for clotting time upon addition of exogenous FXa: two concentrations of FXa
Experimental: The control condition (where no exogenous factor is added) utilizes an activator of the contact activation pathway to activate FXII to FXIIa. FIG. 33B is a bar graph showing the clotting time responses to the addition of buffer (control), two concentrations of FXa, and two concentrations of FIIa. […] The amount of exogenous FIIa added to the sample was inadequate to overcome all of the FIIa inhibition present in the sample. In these examples in FIG. 33B, when a sample's clotting time normalizes to the negative control clotting time, such a result is also described as an “unaffected” clotting time in the figures depicting the pathways.

[2] = PT and INR of patients on FXa-I versus controls; assay type: in vivo, human; conditions: patients documented to be on FXa-I; significance p<0.05
Source text: FIGS. 18A-18C illustrate prothrombin time (PT) and international normalized ratio (INR) is sensitive but not specific for FXa-I anticoagulation. Both PT and INR were compared between control patients and patients documented to be on FXa-I. Abnormal PT was defined as >14 seconds and abnormal INR was defined as >1.2. […] One-way ANOVA was used to compare normal and abnormal controls with both rivaroxaban and apixaban. Significance was defined as p<0.05.

Factors IIa and Xa = experiment: Whole blood clot detection in parallel microfluidic channels pre-coated with FXa; conditions: whole blood with unfractionated heparin, 10 minutes
Experimental: FIGS. 4A and 4B are fluorescent images illustrating clot detection using whole blood in a parallel microfluidic channel device 410 according to an example embodiment. Microfluidic channels 420 were pre-coated with agonist, Factor Xa, at various concentrations (7.5 ng/ml, 75 ng/ml, 750 ng/ml; units “ng/mL” refer to ng×10^3/mL) or with buffer alone (negative control). The fluorescent images are taken at one time point (10 minutes). Microfluidic channels were washed with buffer prior to use to leave only bound FXa within the microfluidic channel. Fresh whole blood was placed into each input port and the blood was drawn in through capillary action. The blood was left to flow for 10 minutes and then the channel was gently washed with buffer. Depicted is a brightfield image of two samples evaluated. […] Unfractionated heparin inhibits Factors IIa and Xa in an antithrombin III-dependent fashion, which is why the addition of these factors at appropriate concentrations can help recover the clotting capability of the sample.

FXa = biological target: T1, FXa (Homo sapiens, UniProt P00742); experiment: Clotting curves of citrated plasma from emergency department patients on FXa-I; assay type: in vivo; conditions: patient plasma samples
T1 construct: Citrated plasma samples were collected from patients; from tissue; host or cells: citrated plasma of patients
Experimental: Citrated plasma samples were collected from patients admitted into the Massachusetts General Hospital Emergency Department. All plasma samples had clinician-ordered coagulation tests (PT/INR, aPTT, DTT, or other). Patient samples were evaluated using an embodiment of the assay described herein. Patient medical records were reviewed for the administration of history of anticoagulants.
Clotting times were compared at various agonist concentrations for all the patient groups to construct clotting curves.

Factor Xa (FXa) = Factor Xa (FXa) (Homo sapiens, UniProt P00742); experiment: Microfluidic clotting-curve assay, plasma spiked with FXa inhibitor, FXa agonist gradient; assay type: biochemical
Source text: (§1) A general protocol for performing the assay according to an embodiment of the invention is as follows: • a) Add together sample, agonist, +/−calcium, +/−clot detection agent • i. Calcium to a final concentration between 0.005-0.05 M (This concentration is particularly suitable for use with 3.2% buffered sodium citrate. If another anticoagulant is used, the concentration of calcium may not be 0.02 M.) • ii. Clot detection agents can include fluorescent labeled fibrinogen, magnets, beads (may be fluorescent or colored) • b) Load into microfluidic device • i. See, e.g., FIGS. 1A-1D, 2A and 2B for examples of input loading configuration and order • c) Temperature control • i. Room temperature • ii. May increase up to 37° C.
(§2) In an example, the process of clot detection can include the following procedural steps: • a) A plasma sample is pre-mixed to include: 6 μL plasma+0.6 μL agonist (10% volume to sample)+0.6 μL Calcium (stock 200 mM, 10% volume to sample)+0.6 μL Fibrinogen (this can vary in concentration, in general <10% volume of sample).
(§3) The time it takes for each of the combinations to form a clot is then plotted. […] Concentration of the agonist (FXa for FIGS. 7A-7C, and FIIa for FIG. 7D) is plotted on the X-axis for each of the figures. The units on the X-axis “ng/mL” refer to ng×10^3/mL.

Factor IX = Factor IX (Homo sapiens, UniProt P00740); experiment: Clotting curve, Factor IX added to FIX-deficient plasma or plasma with anti-Factor IX antibodies (FIG. 26); assay type: biochemical
Source text: It should be understood that the use of exogenous factor addition to a plasma sample may not be able to differentiate between deficiency and low quantities of inhibitors, for example, if the concentration of the inhibitor is low enough such that a physiological level of the factor is able to overcome the functional inhibition resulting in a normalized clotting time. Additionally, the inhibitor detected using the clotting time approach is a functional inhibitor such that the inhibitor decreases the factor's ability to propagate a blood clot.

[3] = tested on: contact activation pathway (intrinsic pathway); experiment: Clotting times of control and factor-deficient plasmas with exogenous coagulation factors (FIG. 25); assay type: biochemical
Source text: FIG. 25 is a table providing representative clotting times (minutes:seconds) for various plasma samples in the presence of exogenous coagulation factors. […] The clotting time for the control plasma, with no exogenous factor added (negative control), represents the clotting time based on activation of the contact activation pathway (intrinsic pathway); this clotting time can be designated as normal clotting time. […] The clotting time of the FVIII-deficient plasma decreases with the addition of FVIII or FIXa. […] The clotting time of FIX-deficient plasma decreases with the addition of exogenous FIX or FIXa. In all plasma samples, exogenous FXa is used as a positive control to confirm the ability of the plasma sample to clot. FIIa can also be used for this purpose.

FIIa = FIIa (Homo sapiens, UniProt P00734)
Source text: as §1, §2, §3

Chain of Factor Xa (FXa) (P00742 235-488 limits assumed): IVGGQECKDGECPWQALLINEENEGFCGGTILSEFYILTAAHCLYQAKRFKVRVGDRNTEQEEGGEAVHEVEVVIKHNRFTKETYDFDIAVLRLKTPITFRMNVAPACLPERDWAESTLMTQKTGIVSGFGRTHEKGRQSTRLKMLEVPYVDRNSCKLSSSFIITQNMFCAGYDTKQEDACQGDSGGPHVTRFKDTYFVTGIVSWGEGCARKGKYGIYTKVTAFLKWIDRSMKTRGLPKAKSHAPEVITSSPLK
Chain of Factor Xa (FXa) (P00742 41-179 partner limits assumed): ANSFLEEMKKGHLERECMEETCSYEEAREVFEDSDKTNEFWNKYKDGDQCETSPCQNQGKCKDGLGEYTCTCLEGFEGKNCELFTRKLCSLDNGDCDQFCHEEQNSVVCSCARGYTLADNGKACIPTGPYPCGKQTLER
Chain of Factor IX (P00740 29-461 limits assumed): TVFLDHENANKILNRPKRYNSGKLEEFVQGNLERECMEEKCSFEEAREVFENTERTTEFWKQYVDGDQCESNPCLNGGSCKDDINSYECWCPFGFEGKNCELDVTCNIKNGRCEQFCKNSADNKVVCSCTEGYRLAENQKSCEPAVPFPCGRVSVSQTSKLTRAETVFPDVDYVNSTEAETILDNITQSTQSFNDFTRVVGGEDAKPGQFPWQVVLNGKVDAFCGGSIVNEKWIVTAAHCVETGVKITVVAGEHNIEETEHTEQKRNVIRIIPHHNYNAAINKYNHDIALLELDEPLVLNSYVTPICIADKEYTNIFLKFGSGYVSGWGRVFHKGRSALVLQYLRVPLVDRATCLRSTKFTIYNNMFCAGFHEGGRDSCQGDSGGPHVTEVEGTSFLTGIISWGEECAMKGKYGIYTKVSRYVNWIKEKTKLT
T1 sequence (P00742 235-488 limits assumed): as the sequence (P00742 235-488 limits assumed) above
T1 sequence (P00742 41-179 partner limits assumed): as the sequence (P00742 41-179 partner limits assumed) above
Chain of FXI (P03951 19-625, species assumed): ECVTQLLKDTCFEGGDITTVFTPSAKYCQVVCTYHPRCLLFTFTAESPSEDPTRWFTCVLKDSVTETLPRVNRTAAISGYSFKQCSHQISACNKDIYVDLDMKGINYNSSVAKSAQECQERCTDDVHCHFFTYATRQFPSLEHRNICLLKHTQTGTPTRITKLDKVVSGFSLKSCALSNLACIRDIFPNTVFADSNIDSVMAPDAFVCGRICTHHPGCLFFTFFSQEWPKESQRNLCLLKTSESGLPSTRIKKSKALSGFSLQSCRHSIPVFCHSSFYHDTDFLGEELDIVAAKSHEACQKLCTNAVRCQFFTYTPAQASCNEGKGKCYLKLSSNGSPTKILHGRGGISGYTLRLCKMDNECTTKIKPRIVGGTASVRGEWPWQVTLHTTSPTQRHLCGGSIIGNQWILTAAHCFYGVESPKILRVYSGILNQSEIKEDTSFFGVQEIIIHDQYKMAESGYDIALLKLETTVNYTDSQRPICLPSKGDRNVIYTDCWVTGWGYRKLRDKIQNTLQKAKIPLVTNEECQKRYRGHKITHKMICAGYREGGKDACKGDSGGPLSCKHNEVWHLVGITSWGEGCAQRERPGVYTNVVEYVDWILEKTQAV

Compound: COc1ccc(-n2nc(C(N)=O)c3c2C(=O)N(c2ccc(N4CCCCC4=O)cc2)CC3)cc1 [Apixaban]
- clotting time with addition of exogenous FXI (FXI): prolongation in clotting time
- clotting time, control condition [1]: prolongation of clotting time
- clotting time upon addition of exogenous FIIa [1]: shortened and normalized clotting time
- clotting time upon addition of exogenous FXa [1]: concentration-dependent clotting-time response
- PT and INR compared to abnormal controls (one-way ANOVA) [2]: no significance

Compound: unfractionated heparin
- clot formation in negative control channel (buffer alone) (Factors IIa and Xa): minimal clot formation
- clot formation in FXa-coated channels (Factors IIa and Xa; FXa 7.5, 75, 750 ng×10^3/mL): gradient of clot formation dependent on the concentration of FXa in the channel

Compound: O=C(NC[C@H]1CN(c2ccc(N3CCOCC3=O)cc2)C(=O)O1)c1ccc(Cl)s1 [Rivaroxaban]
- clotting times at various agonist concentrations, patient group versus control group (FXa): very different from the control group
- clot formation time versus negative control (Factor Xa (FXa); 250 ng/mL Rivaroxaban, FXa agonist down to 375 ng×10^3/mL): significantly longer than the negative control but lower than 500 ng/mL
- agonist (FXa) concentration down to which clot formation detected in <[…] (Factor Xa (FXa); 500 ng/ml Rivaroxaban): 750 ng×10^3/mL
- clot formation detection time (Factor Xa (FXa); 500 ng/ml Rivaroxaban, FXa agonist down to 750 ng×10^3/mL): < 2.5 min
- PT and INR compared to abnormal controls (one-way ANOVA) [2]: no significance

Compound: FIX: exogenous coagulation Factor IX, inactive form
- concentration of added factor needed for normal clotting time (Factor IX; Factor IX-deficient plasma): requires a physiological concentration of replacement factor
- concentration of added factor needed to decrease clotting time (Factor IX; plasma containing anti-Factor IX antibodies): requires supra-physiological concentrations of the factor
- clotting time upon addition of exogenous factor ([3]; FIX-deficient plasma): decreases
- clotting time upon addition of exogenous factor ([3]; FVIII-deficient plasma): prolonged clotting time
- clotting time upon addition of exogenous factor ([3]; FXI-deficient plasma): prolonged clotting time
- clotting time upon addition of exogenous factor ([3]; control (normal) plasma): slight decrease in clotting time

Compound: FXI: exogenous coagulation Factor XI, inactive form
- clotting time upon addition of exogenous factor ([3]; FIX-deficient plasma): prolonged clotting time
- clotting time upon addition of exogenous factor ([3]; FVIII-deficient plasma): prolonged clotting time
- clotting time upon addition of exogenous factor ([3]; FXI-deficient plasma): decreases
- clotting time upon addition of exogenous factor ([3]; control (normal) plasma): slight decrease in clotting time

Compound: Dabigatran
- clot formation detection time (FIIa; 250 ng/mL Dabigatran, FIIa agonist down to 710 ng×10^3/mL): < 2.5 min
- clot formation detection time (FIIa; 500 ng/ml Dabigatran, FIIa agonist down to 710 ng×10^3/mL): < 2.5 min
- clot formation detection time (FIIa; <25 ng/ml Dabigatran, FIIa agonist down to 71 ng×10^3/mL): < 2.5 min
- clotting time, control condition [1]: prolongation of clotting time
- clotting time upon addition of exogenous FIIa [1]: concentration-dependent change in clotting time
- clotting time upon addition of exogenous FXa [1]: relatively small concentration-dependent change in clotting time
